In brackets after ≈: the same amount, converted by molar mass.
settings: buffer; pH 7.4; 200.0 µM

Question: With `NS(=O)(=O)c1ccc(CCNC(=O)COC(=O)/C=C/c2cc(Br)ccc2F)cc1` as the compound, how does the solubility kinetic read?
Answer: 30.2 µg/mL (≈ 62.2 µM)

Question: Which solubility kinetic does the source give for `COCc1c(C(=O)N2CCc3ccccc32)oc2ccccc12` here?
Answer: 7.6 µg/mL (≈ 24.7 µM)

Question: For `CN(C)C(=S)NC1CCS(=O)(=O)C1` (stereo not drawn), which solubility kinetic is on record?
Answer: > 33.3 µg/mL

Question: For `CCN(c1ccccc1)c1nc(C#N)nc(N(CC)c2ccccc2)n1`, which solubility kinetic is on record?
Answer: 0.9 µg/mL (≈ 2.61 µM)

Question: With `CC(C)(Cc1ccc(O)cc1)NC(=O)SCc1ccccc1` as the compound, how does the solubility kinetic read?
Answer: > 47.3 µg/mL

Question: For `S=C(NC1CCCCC1)N1CCn2cccc2C1c1ccncc1` (stereo not drawn), which solubility kinetic is on record?
Answer: 36.1 µg/mL (≈ 106 µM)

Question: With `CCCOc1ncnc2c1[nH]c1ccc(OC)cc12` as the compound, how does the solubility kinetic read?
Answer: 0.5 µg/mL (≈ 1.94 µM)

Question: Which solubility kinetic does the source give for `Oc1ccc(C=NC2CCCCC2)cc1` here?
Answer: 16.6 µg/mL (≈ 81.7 µM)

Question: For `O=[N+]([O-])c1ccccc1COc1ccc(Cl)c2cccnc12`, which solubility kinetic is on record?
Answer: < 0.3 µg/mL

Question: For `CSc1cccc(NC(=O)C(=O)NCc2ccccc2)c1`, which solubility kinetic is on record?
Answer: < 0.3 µg/mL

Question: Which solubility kinetic does the source give for `O=C(Nc1ccc(N2CCCCC2)c(S(=O)(=O)Nc2ccccc2Cl)c1)c1cccnc1` here?
Answer: 1.5 µg/mL (≈ 3.18 µM)

Question: Which solubility kinetic does the source give for `O=C(Nc1cccc2ccccc12)c1ccc([N+](=O)[O-])cc1` here?
Answer: 1 µg/mL (≈ 3.42 µM)

Question: For `COc1cc(OC)c(C2C(C#N)=C(C)NC(C)=C2C#N)c(C(=O)O)c1`, which solubility kinetic is on record?
Answer: > 50.9 µg/mL

Question: With `O=C(OCC(=O)N1CCC(Cc2ccccc2)CC1)c1cncc(Br)c1` as the compound, how does the solubility kinetic read?
Answer: 9.9 µg/mL (≈ 23.7 µM)

Question: With `Cc1ccc(C)c(CN2C(=O)COc3ccccc32)c1` as the compound, how does the solubility kinetic read?
Answer: 2.8 µg/mL (≈ 10.5 µM)

Question: For `Cc1cc(C)cc(OCC(O)CN2CC(C)OC(C)C2)c1.Cl` (stereo not drawn), which solubility kinetic is on record?
Answer: > 49.5 µg/mL

Question: Which solubility kinetic does the source give for `CCc1c(C)sc(NC(=O)c2cc(C(C)C)on2)c1C#N` here?
Answer: 3.4 µg/mL (≈ 11.2 µM)

Question: For `CSc1nsc(NC(=O)OCc2ccc(Cl)cc2)n1`, which solubility kinetic is on record?
Answer: 8.4 µg/mL (≈ 26.6 µM)

Question: Which solubility kinetic does the source give for `CC1CCCN(C(=O)CSc2nnc(-c3ccncc3)n2C)C1` (stereo not drawn) here?
Answer: > 49.7 µg/mL

Question: For `O=C(CCNS(=O)(=O)c1cccc(C(F)(F)F)c1)NCc1ccco1`, which solubility kinetic is on record?
Answer: > 56.5 µg/mL

Question: For `CCc1c(C)nc(N2CCN(c3ccc(OC)cc3)CC2)[nH]c1=O`, which solubility kinetic is on record?
Answer: 5.5 µg/mL (≈ 16.7 µM)

Question: Which solubility kinetic does the source give for `O=C(OCC(=O)N1CCOCC1)c1ccccc1Br` here?
Answer: > 49.2 µg/mL

Question: For `CC1CC1C(=O)N(C)CC(=O)Nc1cccc(F)c1` (stereo not drawn), which solubility kinetic is on record?
Answer: > 39.6 µg/mL

Question: With `COc1ccccc1N1CCN(CCN2C(=O)C3CCCCN3C2=O)CC1` (stereo not drawn) as the compound, how does the solubility kinetic read?
Answer: 40.8 µg/mL (≈ 110 µM)

Question: With `CCCN1C[C@H](CSC)C[C@@H]2c3cccc4[nH]cc(c34)C[C@H]21.CS(=O)(=O)O` as the compound, how does the solubility kinetic read?
Answer: 2.3 µg/mL

Question: With `COc1ccc(NC(=O)C(C)SCc2ccccc2)cc1` (stereo not drawn) as the compound, how does the solubility kinetic read?
Answer: 40.9 µg/mL (≈ 136 µM)

Question: With `COc1nc(N)nc(N)c1NS(=O)(=O)c1ccc(C)cc1` as the compound, how does the solubility kinetic read?
Answer: > 46.4 µg/mL

Question: With `O=C(NCCc1cccc(Cl)c1)c1ccc2c(c1)OCO2` as the compound, how does the solubility kinetic read?
Answer: 5.8 µg/mL (≈ 19.1 µM)

Question: Which solubility kinetic does the source give for `O=C(NC(=S)Nc1ccc(O)cc1)C1CCCC1` here?
Answer: > 39.7 µg/mL

Question: Which solubility kinetic does the source give for `CCn1c2ccccc2c2cc(C#N)c(N)nc21` here?
Answer: 0.7 µg/mL (≈ 2.96 µM)

Question: With `COc1ccccc1CNC(=O)CCCc1cn(C)c2ccccc12` as the compound, how does the solubility kinetic read?
Answer: 8.2 µg/mL (≈ 24.4 µM)

Question: Which solubility kinetic does the source give for `CC(=O)c1cccc(NC(=O)C(CC(C)C)NC(=O)C2CCCCC2)c1` (stereo not drawn) here?
Answer: 20.2 µg/mL (≈ 56.3 µM)

Question: Which solubility kinetic does the source give for `O=C(COc1ccccc1[N+](=O)[O-])Nc1ccc2c(c1)OCO2` here?
Answer: 1.7 µg/mL (≈ 5.38 µM)

Question: With `O=C(COc1cc(F)ccc1[N+](=O)[O-])NCCN1C(=O)CSC1=O` as the compound, how does the solubility kinetic read?
Answer: > 53.6 µg/mL

Question: With `O=c1[nH]c2ccccc2n1CCCN1CCC(n2c(=O)[nH]c3cc(Cl)ccc32)CC1` as the compound, how does the solubility kinetic read?
Answer: 50.4 µg/mL (≈ 118 µM)

Question: Which solubility kinetic does the source give for `NC(=O)c1c(NC(=O)COC(=O)c2ccc(O)c(Cl)c2)sc2c1CCCC2` here?
Answer: 8.5 µg/mL (≈ 20.8 µM)

Question: For `COc1ccc(C(=O)OCC(=O)Nc2c(C)n(C)n(-c3ccccc3)c2=O)cc1`, which solubility kinetic is on record?
Answer: > 59.3 µg/mL

Question: For `CCOC(=O)C(=CNc1ccc(N2CCOCC2)cc1)C(=O)OCC`, which solubility kinetic is on record?
Answer: > 52.3 µg/mL

Question: For `O=C(Nc1ccc(S(=O)(=O)NC2=NCCCCC2)cc1)c1ccc(Cl)c([N+](=O)[O-])c1`, which solubility kinetic is on record?
Answer: 22 µg/mL (≈ 48.8 µM)

Question: Which solubility kinetic does the source give for `O=C1CCCN1CCCNS(=O)(=O)c1cccc(F)c1` here?
Answer: > 45.1 µg/mL

Question: With `Cc1ccnc(NC(=O)CNC(=O)c2ccccc2)c1` as the compound, how does the solubility kinetic read?
Answer: > 40.4 µg/mL

Question: Which solubility kinetic does the source give for `Nc1nc(-c2cc(-c3ccccc3)no2)cs1` here?
Answer: 4.4 µg/mL (≈ 18.1 µM)

Question: For `Cc1cccc(NC(=O)c2c(O)c3ccccc3n(C)c2=O)c1`, which solubility kinetic is on record?
Answer: < 0.3 µg/mL

Question: With `CCOc1ccc(C2NC(=O)CCC2[N+](=O)[O-])cc1` (stereo not drawn) as the compound, how does the solubility kinetic read?
Answer: > 39.6 µg/mL

Question: For `O=C(Nc1cccc2ncccc12)c1ccccc1[N+](=O)[O-]`, which solubility kinetic is on record?
Answer: 36.6 µg/mL (≈ 125 µM)

Question: For `OCCC1CN(Cc2nc3ccccc3[nH]2)CCN1C1CCCC1` (stereo not drawn), which solubility kinetic is on record?
Answer: > 49.3 µg/mL

Question: With `CCOc1ccc(OCCC(=O)OCC(=O)NCc2ccccc2)cc1` as the compound, how does the solubility kinetic read?
Answer: 46.3 µg/mL (≈ 130 µM)

Question: With `O=C(CSc1ncnc2ccccc12)N1CCNC1=O` as the compound, how does the solubility kinetic read?
Answer: > 43.2 µg/mL

Question: With `N#Cc1ccccc1S(=O)(=O)Nc1ccc2c(c1)C(=O)OC2` as the compound, how does the solubility kinetic read?
Answer: 43.4 µg/mL (≈ 138 µM)

Question: Which solubility kinetic does the source give for `CCc1ccc(C(=O)CSc2nc(N)cc(=O)[nH]2)cc1` here?
Answer: 14.2 µg/mL (≈ 49.1 µM)

Question: Which solubility kinetic does the source give for `O=C(O)CC/C(=N/NC(=O)CNC(=O)Cc1ccccc1)c1ccccc1` here?
Answer: > 55.1 µg/mL

Question: Which solubility kinetic does the source give for `COc1ccc(C2(C)NC(=O)N(CC(=O)N(c3ccccc3)C3CCS(=O)(=O)C3)C2=O)cc1` (stereo not drawn) here?
Answer: 52.8 µg/mL (≈ 112 µM)

Question: With `Cc1ccc(OCC(=O)Nc2cccnc2Cl)cc1C` as the compound, how does the solubility kinetic read?
Answer: 0.8 µg/mL (≈ 2.75 µM)

Question: Which solubility kinetic does the source give for `CCN(Cc1ccccc1)C(=O)COC(=O)c1cc(S(=O)(=O)Nc2ccccc2OC)ccc1O` here?
Answer: 6 µg/mL (≈ 12 µM)

Question: With `Cc1ccccc1-n1nc2c(c1NC(=O)C(C)(C)C)CS(=O)(=O)C2` as the compound, how does the solubility kinetic read?
Answer: > 52.1 µg/mL

Question: Which solubility kinetic does the source give for `CC(=O)N1CCN(c2nnc(-c3ccc(C)cc3)c3ccccc23)CC1` here?
Answer: > 52 µg/mL

Question: Which solubility kinetic does the source give for `Cc1cc(CNC(=O)c2cccnc2Cl)c2ccccc2n1` here?
Answer: 39.1 µg/mL (≈ 125 µM)

Question: For `O=C(/C=C/c1ccc(S(=O)(=O)N2CCOCC2)cc1)NC(CO)C(O)c1ccc([N+](=O)[O-])cc1` (stereo not drawn), which solubility kinetic is on record?
Answer: > 73.7 µg/mL

Question: For `O=C(Nc1ccc2c(c1)CCC2)Nc1ccccc1Cl`, which solubility kinetic is on record?
Answer: < 0.3 µg/mL

Question: With `CC(C)Oc1ccc(CCN=C(N)N=C(N)N)cc1Cl.Cl` as the compound, how does the solubility kinetic read?
Answer: > 50.1 µg/mL

Question: With `Fc1ccc(CNC(=S)NCc2ccccc2)cc1` as the compound, how does the solubility kinetic read?
Answer: 11 µg/mL (≈ 40.1 µM)

Question: Which solubility kinetic does the source give for `CC(=O)Nc1ccc2nc(NC(=O)CCc3ccccc3)sc2c1` here?
Answer: 0.7 µg/mL (≈ 2.06 µM)

Question: Which solubility kinetic does the source give for `O=C(CNC(=O)c1ccc(Br)o1)Nc1ccccc1` here?
Answer: 6.7 µg/mL (≈ 20.7 µM)

Question: For `O=S(=O)(c1cccc2ccccc12)N1CCCCC1`, which solubility kinetic is on record?
Answer: 17.3 µg/mL (≈ 62.8 µM)

Question: Which solubility kinetic does the source give for `O=C(O)/C=C/c1cccnc1` here?
Answer: > 22.4 µg/mL

Question: Which solubility kinetic does the source give for `COC(=O)C1(NC(=O)NC2CCCCC2)CCCCC1` here?
Answer: > 42.4 µg/mL

Question: For `COc1cc(C2NC(=O)NC(C)=C2C(C)=O)ccc1O` (stereo not drawn), which solubility kinetic is on record?
Answer: > 41.4 µg/mL

Question: Which solubility kinetic does the source give for `CN(Cc1nc2ccccc2c(=O)[nH]1)C(=O)C1CC(=O)N(c2cccc3ccccc23)C1` (stereo not drawn) here?
Answer: > 64 µg/mL

Question: With `Cc1ccccc1NC(=O)c1ccco1` as the compound, how does the solubility kinetic read?
Answer: > 30.2 µg/mL

Question: Which solubility kinetic does the source give for `COc1ccccc1NS(=O)(=O)c1ccc(N2CCOCC2)c(N)c1` here?
Answer: 5.1 µg/mL (≈ 14 µM)

Question: Which solubility kinetic does the source give for `COc1cc(Cl)c(C)cc1Nc1ncccn1` here?
Answer: 22.4 µg/mL (≈ 89.7 µM)

Question: With `COc1ccc(S(=O)(=O)N2CC(=O)Nc3ccccc32)cc1` as the compound, how does the solubility kinetic read?
Answer: > 47.8 µg/mL

Question: With `COc1ccc(C)cc1NC(=O)C1CCCCN1S(=O)(=O)c1ccccc1` (stereo not drawn) as the compound, how does the solubility kinetic read?
Answer: 12 µg/mL (≈ 30.9 µM)

Question: With `CCCNC(=O)Cn1nc(C(F)(F)F)c2c1CCC2` as the compound, how does the solubility kinetic read?
Answer: > 41.3 µg/mL

Question: With `O=C(Nc1ncc2c(n1)-c1ccccc1OC2)c1ccc(F)cc1` as the compound, how does the solubility kinetic read?
Answer: 6.1 µg/mL (≈ 19 µM)

Question: For `CCOc1ccc(NC(=O)CN2C(=O)NC(CCc3ccccc3)C2=O)cc1OCC` (stereo not drawn), which solubility kinetic is on record?
Answer: 8.8 µg/mL (≈ 20.7 µM)

Question: With `CC(C)N1C(=O)CCC1C(=O)N1CCN(c2ccc(F)cc2)CC1` (stereo not drawn) as the compound, how does the solubility kinetic read?
Answer: > 50 µg/mL

Question: With `CC(C)(C)c1ccc(C(=O)C2CCCN(C3CCC3)C2)cc1` (stereo not drawn) as the compound, how does the solubility kinetic read?
Answer: 37.9 µg/mL (≈ 127 µM)

Question: With `O=C(COC(=O)/C=C/c1cccs1)NC1CC1` as the compound, how does the solubility kinetic read?
Answer: > 37.7 µg/mL

Question: With `CCCCN1CC2=C(C1=O)C(c1ccc(O)cc1)NC(=O)N2C` (stereo not drawn) as the compound, how does the solubility kinetic read?
Answer: > 47.3 µg/mL

Question: With `NS(=O)(=O)c1ccc(C(=O)Nc2ccc(-c3nc4cccnc4s3)cc2)cc1` as the compound, how does the solubility kinetic read?
Answer: 2.5 µg/mL (≈ 6.09 µM)

Question: Which solubility kinetic does the source give for `CCOc1ccc(NC(=O)COC(=O)Cn2cnc3ccccc32)cc1` here?
Answer: 19.9 µg/mL (≈ 56.3 µM)

Question: With `CCOc1cc(/C=C2\N=C(C)OC2=O)cc(Cl)c1OCC(=O)OC` as the compound, how does the solubility kinetic read?
Answer: 23.1 µg/mL (≈ 65.3 µM)
